In patent publication US9949980B2, “Drugs to prevent HPV infection” (Wisconsin Alumni Research Foundation, priority 2008, dated 2018):
Read-outs that look alike come from different tables or passages of the source.

Assays:
in vitro = conditions: human, Viability (CelTiter Glow)
Procedure: (§1) FIG. 1. High throughout screen (HTS) for identifying inhibitors of HPV infection. Shown is a schematic showing basic steps in the HTS. […] Briefly, HPV16 pseudoviruses containing the SEAP reporter genes are analyzed for their ability to infect as judged by the levels of secreted alkaline phosphatase in the tissue culture supernatant (light grey arrows). Cell viability was assessed in parallel on the same wells (dark grey arrows). In the specific HTS carried out in this study, the compounds were added at 3 uM/1% DMSO final concentration (black arrow) 4 hours prior to infection.
(§2) After incubation at 37° C. for 24 hrs, 35 μL of media was removed. […] Cells were incubated at 37° C. for 48 hrs. 2.5 μL of media was collected for SEAP assay using a PHOSPHA-LIGHT chemiluminescent alkaline phosphatase assay (Applied Biosystems). Cell viability was determined using the CellTiter Glo Luminescent Cell Viability Assay™ (Promega).

HPV16 pseudoviruses = assay: microbe, parasite or virus in culture; type: cell-based; conditions: Human papillomavirus 16, HEK-293T, 48 h
Procedure: as §1, §2

[1] = read-out: Infectivity (SEAP Activity), 3 μM HTS standard concentration, 293T cells, 48 hrs
[2] = read-out: Infectivity vs. viability, 3 μM HTS standard concentration, ratio infectivity/viability

Row | SMILES | viability at 52 h, 3 μM (in vitro) [%] | activity at 3 µM (HPV16 pseudoviruses; [1]) [%] | activity at 3 µM (HPV16 pseudoviruses; [2]) [%]
1 | COc1ccc(C(NC(=O)Cc2ccccc2)c2ccc3cccnc3c2O)cc1 (stereo not drawn) [Compound 5929288, N-[(8-hydroxy-7-quinolinyl)(4-methoxyphenyl)methyl]-2-phenylacetamide] | 59.8 | 1.44 | 2.41
2 | COc1cc(NC(=O)C=Cc2ccc(OC)c(Br)c2)c(OC)cc1Cl [Compound 5944623, 3-(3-bromo-4-methoxyphenyl)-N-(4-chloro-2,5-dimethoxyphenyl)acrylamide] | 98.5 | 48.8 | 49.5
3 | Cc1ccc2nc3nc(C)cc(C)c3c(N)c2c1 [Compound 5947488, 2,4,7-trimethylbenzo[b]-1,8-naphthyridin-5-amine] | 68 | 34.6 | 51
4 | Cc1ccc2cc(C3CC(c4ccc(Br)cc4)=NN3C(=O)CCC(=O)O)c(=O)[nH]c2c1 (stereo not drawn) [Compound 5976736, 4-[3-(4-bromophenyl)-5-(7-methyl-2-oxo-1,2-dihydro-3-quinolinyl)-4,5-dihydro-1H-pyrazol-1-yl]-4-oxobutanoic acid] | 105 | 42.2 | 40.2
5 | Cc1ccc(CN2CCN(S(C)(=O)=O)CC2)cc1 [Compound 5994189, 1-(4-methylbenzyl)-4-(methylsulfonyl)piperazine] | 109 | 39.8 | 36.5
6 | Cc1nc2ccccc2c(=O)n1N=Cc1c(O)ccc2ccccc12 [Compound 6001901, 3-{[(2-hydroxy-1-naphthyl)methylene]amino}-2-methyl-4(3H)-quinazolinone] | 110 | 65.8 | 60
7 | Cc1cc(OCC(=O)Nc2ccc(N3CCOCC3)c(Cl)c2)cc(C)c1Cl [Compound 6013775, 2-(4-chloro-3,5-dimethylphenoxy)-N-[3-chloro-4-(4-morpholinyl)phenyl]acetamide] | 105 | 58.8 | 56
8 | Cc1cc(Cl)ccc1OCC(=O)Nc1ccc(Br)c(NC(=O)c2ccccc2)c1 [Compound 6016344, N-(2-bromo-5-{[(4-chloro-2-methylphenoxy)acetyl]amino}phenyl)benzamide] | 94.6 | 51.4 | 54.4
9 | CCOc1ccc(C(=O)Nc2ccc3oc(-c4ccccc4F)nc3c2)cc1Cl [Compound 6021315, 3-chloro-4-ethoxy-N-[2-(2-fluorophenyl)-1,3-benzoxazol-5-yl]benzamide] | 96.3 | 47 | 48.8
10 | Cc1ccccc1C(=O)Nc1cccc(NC(=O)c2ccc(-c3ccc(Br)cc3)o2)c1 [Compound 6021688, 5-(4-bromophenyl)-N-{3-[(2-methylbenzoyl)amino]phenyl}-2-furamide] | 104 | 40.2 | 38.7
11 | O=[N+]([O-])c1cc(-n2ncnc2-c2ccc3c(c2)OCO3)ccc1F [Compound 6033199, 5-(1,3-benzodioxol-5-yl)-1-(4-fluoro-3-nitrophenyl)-1H-1,2,4-triazole] | 106 | 50.6 | 47.9
12 | CC(c1ccccc1)c1nnc(NC(=O)Nc2ccc(Cl)cc2)s1 (stereo not drawn) [Compound 6040256, N-(4-chlorophenyl)-N′-[5-(1-phenylethyl)-1,3,4-thiadiazol-2-yl]urea] | 97.5 | 29.6 | 30.4
13 | O=C(Nc1ccccc1C(=O)N[C@@H](Cc1ccccc1)C(=O)O)c1ccccc1 [Compound 6058136, N-[2-(benzoylamino)benzoyl]phenylalanine] | 109 | 64.7 | 59.1
14 | CCCCNC(=O)c1cc2nc(-c3ccc(OCC)cc3)cc(C)n2n1 [Compound 6070486, N-butyl-5-(4-ethoxyphenyl)-7-methylpyrazolo[1,5-a]pyrimidine-2-carboxamide] | 113 | 54.6 | 48.3
15 | Cc1ccc(OCc2nnc(NC(=O)Nc3ccc(Cl)c(Cl)c3)s2)cc1 [Compound 6070527, N-(3,4-dichlorophenyl)-N′-{5-[(4-methylphenoxy)methyl]-1,3,4-thiadiazol-2-yl}urea] | 105 | 41.8 | 39.8
16 | O=C(Nc1ccccc1)Nc1nnc(COc2ccc(Cl)cc2)s1 [Compound 6072068, N-{5-[(4-chlorophenoxy)methyl]-1,3,4-thiadiazol-2-yl}-N′-phenylurea] | 112 | 54.5 | 48.8
17 | Cc1ccc(-c2cc(N)n(Cc3ccc(Cl)cc3)n2)cc1 [Compound 6077076, 1-(4-chlorobenzyl)-3-(4-methylphenyl)-1H-pyrazol-5-amine] | 74.4 | 20.9 | 28.1
18 | COc1ccccc1CC(N)=NOC(=O)COc1ccc(C)cc1 [Compound 6084167, 2-(2-methoxyphenyl)-N′-{[(4-methylphenoxy)acetyl]oxy}ethanimidamide] | 114 | 53.8 | 47.2
19 | O=c1oc2c3c4c(cc2cc1CCO)CCCN4CCC3 [Compound 6105180, 10-(2-hydroxyethyl)-2,3,6,7-tetrahydro-1H,5H,11H-pyrano[2,3-f]pyrido[3,2,1-ij]quinolin-11-one] | 115 | 56.9 | 49.5
20 | CN(C)c1cccc(C(=O)NCc2ccc(S(N)(=O)=O)cc2)c1 [Compound 6106063, N-[4-(aminosulfonyl)benzyl]-3-(dimethylamino)benzamide] | 105 | 45.6 | 43.4
21 | Cc1c(NS(=O)(=O)c2cc(Cl)ccc2Cl)cccc1[N+](=O)[O-] [Compound 6107659, 2,5-dichloro-N-(2-methyl-3-nitrophenyl)benzenesulfonamide] | 67.8 | 22.3 | 32.9
22 | CCOc1cccc(C(=O)Nc2ccc(NC(=O)c3ccco3)c(OC)c2)c1 [Compound 6113089, N-{4-[(3-ethoxybenzoyl)amino]-2-methoxyphenyl}-2-furamide] | 103 | 54.6 | 52.9
23 | COc1cc(NC(=O)COc2ccccc2C)ccc1NC(=O)c1ccco1 [Compound 6113090, N-(2-methoxy-4-{[(2-methylphenoxy)acetyl]amino}phenyl)-2-furamide] | 106 | 55 | 51.9
24 | COc1ccc(S(=O)(=O)Nc2cc(Cl)ccc2C)cc1 [Compound 6118535, N-(5-chloro-2-methylphenyl)-4-methoxybenzenesulfonamide] | 73.9 | 39 | 52.8
25 | Cc1cccc(C(=O)Nc2cccc(NC(=O)COc3ccccc3Cl)c2)c1 [Compound 6126189, N-(3-{[(2-chlorophenoxy)acetyl]amino}phenyl)-3-methylbenzamide] | 99.1 | 49.8 | 50.2
